Where “and” joins values, the source holds several entries; their conditions need not be identical. Equal values may be shown once. Inconclusive results and toxic doses are left out. Rule for the calls: active = survival T/C of 150% or more; inactive = T/C below 125% in these data. Peptide text beside a SMILES is read from it. * marks the point of attachment. Cbz = O=C(OCc1ccccc1)*
Tested on: P388 leukemia ip, CD2F1 mice, survival T/C
Assay: NCI In Vivo Anticancer Drug Screen. Data for tumor model P388 Leukemia (intraperitoneal) in CD2F1 (CDF1) mice
Conditions: endpoint: median survival time, higher = longer survival
How it was run: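 Mice carrying the transplanted tumor received test compound or vehicle. Survival was recorded in each group, and the value is the treated-group measurement divided by that of the vehicle-treated control group.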

[1] = dose: 50.0 mg/kg/injection, schedule: Q01DX005 (ip), vehicle: saline
[2] = dose: 25.0 mg/kg/injection, schedule: Q01DX009 (ip), vehicle: saline with Tween-80
[3] = dose: 50.0 mg/kg/injection, schedule: Q01DX009 (ip), vehicle: saline with Tween-80
[4] = dose: 100.0 mg/kg/injection, schedule: Q01DX009 (ip), vehicle: saline with Tween-80
[5] = dose: 50.0 mg/kg/injection, schedule: Q01DX005 (ip), vehicle: Klucel (hydroxypropylcellulose) (HPC)
[6] = dose: 100.0 mg/kg/injection, schedule: Q01DX005 (ip), vehicle: Klucel (hydroxypropylcellulose) (HPC)
[7] = dose: 200.0 mg/kg/injection, schedule: Q01DX005 (ip), vehicle: Klucel (hydroxypropylcellulose) (HPC)
[8] = dose: 60.0 mg/kg/injection, schedule: Q01DX005 (ip), vehicle: saline with Tween-80

Measured: T/C

CCN(CC)CCSCCNc1cc(OC)cc2cccnc12
inactive: dose: 12.5 mg/kg/injection, schedule: Q01DX005 (ip), vehicle: saline 101 % of control | dose: 25.0 mg/kg/injection, schedule: Q01DX005 (ip), vehicle: saline 101 % of control | [1] 89 % of control and 97 % of control

CC1(C)CC(=O)C=C(NCCCCCCCCNC2=CC(=O)CC(C)(C)C2)C1
inactive: dose: 50.0 mg/kg/injection, schedule: Q01DX009 (ip), vehicle: Klucel (hydroxypropylcellulose) (HPC) 95 % of control | dose: 100.0 mg/kg/injection, schedule: Q01DX009 (ip), vehicle: Klucel (hydroxypropylcellulose) (HPC) 106 % of control | dose: 200.0 mg/kg/injection, schedule: Q01DX009 (ip), vehicle: Klucel (hydroxypropylcellulose) (HPC) 100 % of control

C=C1OC(C2CCCCC2)=C(C(=O)OCC)C1C (configuration not stated)
inactive: dose: 100.0 mg/kg/injection, schedule: Q01DX001 (ip), vehicle: saline with Tween-80 100 % of control | dose: 200.0 mg/kg/injection, schedule: Q01DX001 (ip), vehicle: saline with Tween-80 94 % of control | dose: 400.0 mg/kg/injection, schedule: Q01DX001 (ip), vehicle: saline with Tween-80 100 % of control

CN1CCCC2C(c3ccccc3)C(C3=NCCCC3)C(c3ccccc3)CC21 (configuration not stated)
inactive: [2] 100 % of control | dose: 25.0 mg/kg/injection, schedule: Q04DX003 (ip), vehicle: saline with Tween-80 113 % of control | [3] 100 % of control | dose: 50.0 mg/kg/injection, schedule: Q04DX003 (ip), vehicle: saline with Tween-80 100 % of control | [4] 104 % of control | dose: 100.0 mg/kg/injection, schedule: Q04DX003 (ip), vehicle: saline with Tween-80 100 % of control

COc1cc(/C=C/c2ccccn2)oc(=O)c1
inactive: dose: 100.0 mg/kg/injection, schedule: Q04DX002 (ip), vehicle: Klucel (hydroxypropylcellulose) (HPC) 102 % of control | dose: 200.0 mg/kg/injection, schedule: Q04DX002 (ip), vehicle: Klucel (hydroxypropylcellulose) (HPC) 100 % of control | dose: 400.0 mg/kg/injection, schedule: Q04DX002 (ip), vehicle: Klucel (hydroxypropylcellulose) (HPC) 100 % of control

Fc1nn2ccccc2c1C(F)(F)F
inactive: [5] 99 % of control | [6] 104 % of control | [7] 100 % of control

COC(=O)NC[Si](C)(C)C
inactive: dose: 15.0 mg/kg/injection, schedule: Q01DX005 (ip), vehicle: saline with Tween-80 105 % of control | dose: 30.0 mg/kg/injection, schedule: Q01DX005 (ip), vehicle: saline with Tween-80 106 % of control | [8] 103 % of control

COC(=O)C1=C/C=C\CN(CCC2OCC(CBr)O2)/C=C\1C(=O)OC (configuration not stated)
inactive: dose: 100.0 mg/kg/injection, schedule: Q01DX001 (ip), vehicle: alcohol 95 % of control | dose: 200.0 mg/kg/injection, schedule: Q01DX001 (ip), vehicle: alcohol 100 % of control | dose: 400.0 mg/kg/injection, schedule: Q01DX001 (ip), vehicle: alcohol 100 % of control

Cc1ccc(S(=O)(=O)NC(=O)Nc2ccccc2SC2CCc3ccccc32)cc1 (configuration not stated)
inactive: [5] 105 % of control | [6] 108 % of control | [7] 102 % of control

COC1=CCC2=C(CCN(C)C2Cc2ccc(OC)cc2)C1 (configuration not stated)
inactive: dose: 12.5 mg/kg/injection, schedule: Q01DX005 (ip), vehicle: Klucel (hydroxypropylcellulose) (HPC) 97 % of control | dose: 25.0 mg/kg/injection, schedule: Q01DX005 (ip), vehicle: Klucel (hydroxypropylcellulose) (HPC) 96 % of control | [5] 100 % of control

CC1CCn2c(nc3c2c(=O)n(C)c(=O)n3C)N1 (configuration not stated)
inactive: [8] 102 % of control and 100 % of control | dose: 120.0 mg/kg/injection, schedule: Q01DX005 (ip), vehicle: saline with Tween-80 93 % of control and 94 % of control | dose: 240.0 mg/kg/injection, schedule: Q01DX005 (ip), vehicle: saline with Tween-80 93 % of control and 91 % of control

CC(C)CC(NC(=O)C(Cc1cnc[nH]1)NC(=O)OCc1ccccc1)C(=O)O (stereo not drawn) (Cbz-His-Leu-OH; configuration not given here)
inactive: [5] 102 % of control | [6] 104 % of control | [7] 104 % of control

NC(=O)SCC(N)C(=O)O (configuration not stated)
inactive: [3] 111 % of control | dose: 50.0 mg/kg/injection, schedule: Q01DX009 (ip), vehicle: saline 108 % of control | dose: 50.0 mg/kg/injection, schedule: Q01DX009 (ip), vehicle: suspension in saline 108 % of control | [4] 114 % of control and 119 % of control | dose: 100.0 mg/kg/injection, schedule: Q01DX009 (ip), vehicle: suspension in saline 121 % of control | dose: 400.0 mg/kg/injection, schedule: Q01DX009 (ip), vehicle: saline with Tween-80 101 % of control | dose: 400.0 mg/kg/injection, schedule: Q01DX009 (ip), vehicle: saline 98 % of control and 93 % of control

O=NN(C(=O)NCCN1CCOCC1)C1CCCCC1
inactive: dose: 25.0 mg/kg/injection, schedule: Q01DX001 (ip), vehicle: water 115 % of control | dose: 50.0 mg/kg/injection, schedule: Q01DX001 (ip), vehicle: water 100 % of control | dose: 100.0 mg/kg/injection, schedule: Q01DX001 (ip), vehicle: water 103 % of control | dose: 200.0 mg/kg/injection, schedule: Q01DX001 (ip), vehicle: water 111 % of control | dose: 400.0 mg/kg/injection, schedule: Q01DX001 (ip), vehicle: water 117 % of control

CCN(CC)CCOCCCNc1ccnc2cc(Cl)ccc12
inactive: [1] 100 % of control | dose: 100.0 mg/kg/injection, schedule: Q01DX005 (ip), vehicle: saline 103 % of control

Cc1sc(C)c(CCl)c1CCl
inactive: dose: 12.5 mg/kg/injection, schedule: Q01DX009 (ip), vehicle: saline with Tween-80 113 % of control | [2] 118 % of control | dose: 37.5 mg/kg/injection, schedule: Q01DX009 (ip), vehicle: saline with Tween-80 122 % of control | [3] 118 % of control

Cc1ccc(C)c(NC(=O)/C=N/O)c1
inactive: dose: 50.0 mg/kg/injection, schedule: Q01DX005 (ip), vehicle: saline with Tween-80 98 % of control | dose: 100.0 mg/kg/injection, schedule: Q01DX005 (ip), vehicle: saline with Tween-80 110 % of control | dose: 200.0 mg/kg/injection, schedule: Q01DX005 (ip), vehicle: saline with Tween-80 105 % of control

COc1ccc(C(=O)CCC2(C)OCCO2)cc1OC
inactive: dose: 60.0 mg/kg/injection, schedule: Q01DX005 (ip), vehicle: Klucel (hydroxypropylcellulose) (HPC) 101 % of control | dose: 120.0 mg/kg/injection, schedule: Q01DX005 (ip), vehicle: Klucel (hydroxypropylcellulose) (HPC) 108 % of control | dose: 240.0 mg/kg/injection, schedule: Q01DX005 (ip), vehicle: Klucel (hydroxypropylcellulose) (HPC) 106 % of control

COC(=O)C1=C(O)/C(=C\c2ccccc2)NC1=O
inactive: [5] 101 % of control | [6] 108 % of control | [7] 104 % of control

CN=C(NC#N)NCCSCc1ccc2ccccc2n1
inactive: dose: 50.0 mg/kg/injection, schedule: Q01DX005 (ip), vehicle: distilled water + Tween-80 + alcohol 115 % of control | dose: 100.0 mg/kg/injection, schedule: Q01DX005 (ip), vehicle: distilled water + Tween-80 + alcohol 94 % of control

CC1(C)C2CC[C@@]1(CS(=O)(=O)N(CCCl)CCCl)C(=O)C2
inactive: dose: 30.0 mg/kg/injection, schedule: Q01DX005 (ip), vehicle: saline 99 % of control | dose: 60.0 mg/kg/injection, schedule: Q01DX005 (ip), vehicle: saline 98 % of control | dose: 120.0 mg/kg/injection, schedule: Q01DX005 (ip), vehicle: saline 96 % of control | dose: 240.0 mg/kg/injection, schedule: Q01DX005 (ip), vehicle: saline 96 % of control
